Laboratory results: patent US7094420B2, “Methods of using isomer enriched conjugated linoleic acid compositions” (Natural ASA, priority 1998, dated 2006)

Assay: Mouse feeding trial of diets with different ratios and amounts of CLA isomers
Format: in vivo, ICR mice
Experimental: Based on the results of Example 1, the Inventors believe that the t10,c12 isomer is an active isomer.
The trial was conducted with 84 ICR mice purchased from Harlan Sprague Dawley (Madison, Wis.). The diets were blended using the basal diet, sugar, corn oil and one or a blend of isomers of conjugated linoleic acid (expressed as percent of diet). Each treatment consisted of 2 pens of 3 mice. Mice had food and water ad libitum. Food consumption was monitored daily and mice were weighed every other day when bedding was changed. At three weeks of feeding the diet, mice were euthanized by CO2 and final body weights were taken. Mice were then necropsied and fat pads were weighed. Mice were also analyzed for total body fat. Mice were freeze dried and ground. Duplicate samples were analyzed by proximate analysis (ether extraction, ash, kjeldahl, and moisture).

SMILES | improvement in growth (mice fed only c9,t11 CLA, no t10,c12 present, linear) [%] | growth, rate of gain, and feed conversion (mice receiving only c9,t11 CLA) | body fat compared to control mice (mice fed only t10,c12 CLA vs control mice not receiving CLA) | reduction in growth (mice fed t10,c12 isomer only) [%]
CCCCCC/C=C/C=C\CCCCCCCC(=O)O [c9,t11 CLA, c9,t11 octadecadienoic acid] | 16 | increased growth, rate of gain, and feed conversion |  | 
CCCCC/C=C\C=C\CCCCCCCCC(=O)O [t10,c12 CLA, t10,c12 octadecadienoic acid] |  |  | reduced body fat | 10
